Results taken from publication PMC9117288, “Origins of glycan selectivity in streptococcal Siglec-like adhesins suggest mechanisms of receptor adaptation” (Nature Communications, 2022).
pEC50: −log10 of the molar value. In brackets after ≈: the same amount, converted by molar mass. Read-outs that look alike come from different tables or passages of the source.

What was measured:
SLBRSK678 = experiment: ELISA, immobilized GST-SLBR; design: species or system Streptococcus sanguinis; details: labelled compound (biotinylated glycan); 500 nM immobilized GST-SLBR
SLBRUB10712 = experiment: ELISA, immobilized GST-SLBR; design: species or system Streptococcus gordonii; details: labelled compound (biotinylated glycan); 500 nM immobilized GST-SLBR
SLBRHsa [1] = biological target: T1, SLBRHsa (Streptococcus gordonii, UniProt A8AWU7); format: binding; design: gene hsa; details: labelled compound (biotinylated glycan); 500 nM immobilized GST-SLBR
SLBRGspB [2] = biological target: T2, SLBRGspB (Streptococcus gordonii, UniProt Q939N5); design: ELISA, binding of biotinylated glycans to immobilized GST-SLBR (500 nM), absorbance at 450 nm; details: biotinylated glycan, binder
T2 construct: gene gspB

SLBRHsa [3] = biological target: T1, SLBRHsa; design: gene hsa; ELISA: GST fusion (pGEX-3X); crystals: His6-MBP tag cleaved with thrombin; E. coli; details: binder
SLBRGspB [4] = biological target: T2, SLBRGspB; experiment: ELISA, immobilized GST-SLBR; format: binding; details: labelled compound (biotinylated glycan)

T2 sequence (Q939N5 245-604): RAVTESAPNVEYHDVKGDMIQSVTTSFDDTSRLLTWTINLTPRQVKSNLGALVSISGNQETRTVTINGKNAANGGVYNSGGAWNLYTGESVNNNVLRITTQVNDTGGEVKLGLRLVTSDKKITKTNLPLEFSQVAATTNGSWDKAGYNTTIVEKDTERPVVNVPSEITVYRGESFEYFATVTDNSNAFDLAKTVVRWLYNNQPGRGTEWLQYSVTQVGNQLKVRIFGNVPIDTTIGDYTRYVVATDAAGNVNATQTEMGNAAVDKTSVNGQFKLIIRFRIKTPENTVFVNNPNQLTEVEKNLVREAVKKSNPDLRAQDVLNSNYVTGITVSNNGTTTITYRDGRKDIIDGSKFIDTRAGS
T1 sequence (A8AWU7 220-453): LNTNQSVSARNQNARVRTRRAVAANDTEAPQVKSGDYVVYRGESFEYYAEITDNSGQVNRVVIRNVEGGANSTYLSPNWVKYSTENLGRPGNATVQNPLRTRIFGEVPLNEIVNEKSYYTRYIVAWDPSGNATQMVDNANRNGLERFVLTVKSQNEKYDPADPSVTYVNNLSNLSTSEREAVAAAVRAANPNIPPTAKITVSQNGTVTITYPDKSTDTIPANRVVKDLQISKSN

| SMILES | EC50 (SLBRSK678) | EC50 (SLBRUB10712) | pEC50 (SLBRHsa [1]) | also measured |
| --- | --- | --- | --- | --- |
| CC(=O)N[C@H]1[C@H]([C@H](O)[C@H](O)CO)O[C@@](O[C@H]2[C@@H](O)[C@@H](CO)O[C@@H](O[C@H]3[C@H](O)[C@@H](NC(C)=O)C(O)O[C@@H]3CO)[C@@H]2O)(C(=O)O)C[C@@H]1O (stereo partly shown) [3’-sialyl-N-acetyllactosamine] | 0.90 ± 0.51 µg/mL (≈ 1.33 µM) | 0.13 ± 0.19 µg/mL (≈ 0.193 µM) | 5.62 | pEC50 (SLBRGspB [2]; read-out: 3'sLn): < 5.13 |
| CC(=O)N[C@H]1[C@H]([C@H](O)[C@H](O)CO)O[C@@](O[C@H]2[C@@H](O)[C@@H](CO)O[C@@H](O[C@H]3[C@H](O[C@@H]4O[C@@H](C)[C@@H](O)[C@@H](O)[C@@H]4O)[C@@H](NC(C)=O)C(O)O[C@@H]3COS(=O)(=O)O)[C@@H]2O)(C(=O)O)C[C@@H]1O (stereo partly shown) [6-O-sulfo-sialyl Lewis X] | 0.63 ± 0.36 µg/mL (≈ 0.699 µM) | 0.14 ± 0.10 µg/mL (≈ 0.155 µM) | – | pEC50 (SLBRHsa [3]; read-out: 6S-sLe^X): < 5.26 |
| CC(=O)N[C@H]1[C@H]([C@H](O)[C@H](O)CO)O[C@@](O[C@H]2[C@@H](O)[C@@H](CO)O[C@@H](O[C@@H]([C@H](O[C@@H]3O[C@@H](C)[C@@H](O)[C@@H](O)[C@@H]3O)[C@H](C=O)NC(C)=O)[C@H](O)CO)[C@@H]2O)(C(=O)O)C[C@@H]1O [sLe^X, sialyl Lewis X] | – | – | – | pEC50 (SLBRHsa [3]; read-out: sLe^X): < 5.22 |
| CC(=O)N[C@H]1[C@H]([C@H](O)[C@H](O)CO)O[C@@](O[C@H]2[C@@H](O)[C@@H](CO)O[C@@H](O[C@H]3[C@H](O)[C@@H](CO)OC(O)[C@@H]3NC(C)=O)[C@@H]2O)(C(=O)O)C[C@@H]1O (stereo partly shown) [sialyl Lewis^C] | – | – | 6.00 | pEC50 (SLBRGspB [2]; read-out: sLe^C): < 5.13 |
| CC(=O)N[C@H]1[C@H]([C@H](O)[C@H](O)CO)O[C@@](O[C@H]2[C@@H](O)[C@@H](CO)O[C@@H](O[C@H]3[C@@H](O)[C@@H](CO)OC(O)[C@@H]3NC(C)=O)[C@@H]2O)(C(=O)O)C[C@@H]1O (stereo partly shown) [sialyl-T antigen] | – | – | 6.75 | pEC50 (SLBRGspB [2]; read-out: sTa): 6.93; ELISA, immobilized GST-SLBR (SLBRGspB [4]): recapitulated here by ELISA showing concentration-dependent binding |
